Measured values published in PubChem BioAssay (NCI).
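Exposure lasted 48 hours, with cells grown in 96-well plates and compounds tested at five concentrations. Abbreviation: GI50, concentration required for 50% inhibition of growth. TGI marks complete inhibition of growth.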

How the values were obtained:
Assay in all cases: NCI tumour cell line growth inhibition, 48 h
A498 renal = test system: A498 renal
CAKI-1 renal = test system: CAKI-1 renal
EKVX NSCLC = test system: EKVX NSCLC
HCC-2998 colon = test system: HCC-2998 colon
MOLT-4 leukemia = test system: MOLT-4 leukemia
NCI-H226 lung = test system: NCI-H226 lung
SF-268 CNS = test system: SF-268 CNS
SK-MEL-2 melanoma = test system: SK-MEL-2 melanoma
SN12C renal = test system: SN12C renal
TK-10 renal = test system: TK-10 renal

SMILES	GI50 (A498 renal) [µM]	TGI (A498 renal) [µM]	GI50 (CAKI-1 renal) [µM]	TGI (CAKI-1 renal) [µM]	GI50 (EKVX NSCLC) [µM]	TGI (EKVX NSCLC) [µM]	GI50 (HCC-2998 colon) [µM]	TGI (HCC-2998 colon) [µM]	GI50 (MOLT-4 leukemia) [µM]	TGI (MOLT-4 leukemia) [µM]	GI50 (NCI-H226 lung) [µM]	TGI (NCI-H226 lung) [µM]	GI50 (SF-268 CNS) [µM]	TGI (SF-268 CNS) [µM]	GI50 (SK-MEL-2 melanoma) [µM]	TGI (SK-MEL-2 melanoma) [µM]	GI50 (SN12C renal) [µM]	TGI (SN12C renal) [µM]	GI50 (TK-10 renal) [µM]	TGI (TK-10 renal) [µM]
COCC(=O)NC/C=C/c1ccc2ncnc(Nc3ccc(Oc4ccc(C)nc4)c(C)c3)c2c1	4.13	32.6	3.31	49.5	4.16	48.7	20.1	39.7	13.8	53.8	14.8	69.3	15.7	50.9	18.5	41.7	12	35.7	7.52	53.9
CCOc1ccc(N=Cc2ccc3ccccc3n2)cc1	–	> 100	–	> 100	–	> 100	–	> 100	–	> 100	–	> 100	–	> 100	–	> 100	–	> 100	–	> 100
CC(C)=CCC/C(C)=C/CC/C(C)=C/C1CCC(=O)C1(C)C (stereo not drawn)	–	36.9	–	46.8	–	42.4	–	38.2	–	41	–	29.4	–	33.6	–	34.1	–	30.9	–	> 100
O=C1c2ccccc2-c2c1c1ccc([N+](=O)[O-])cc1c(=O)n2CCCn1ccnc1	0.525	8.88	0.172	0.807	6.16	> 21.8	2	5.57	2.12	4.64	0.0183	0.0637	–	15.1	1.06	3.27	0.0153	0.0378	1.16	9.31
Cc1nc(-n2nc(-c3ccccc3)cc2-c2ccccc2)sc1C(=O)/C=C/c1ccc(Cl)cc1	–	83.3	–	62.7	–	> 100	–	29.9	–	41	–	42.1	–	> 100	–	35.7	–	> 100	–	> 100
Cc1ccc2c(c1)-c1oc(=O)c(-c3cc4ccccc4oc3=O)cc1C(O)O2 (stereo not drawn)	16.2	30.3	20.5	46.7	11.8	25.7	18.5	36.2	27.8	74.4	18.9	40.5	34.2	> 100	16.9	42.1	19.7	45	16.3	34.9
CCOC(=O)C(=O)C(/C(=N/N(C)C)C(=O)Nc1ccc(C)cc1C)c1nc2ccccc2[nH]c1=O (stereo not drawn)	–	> 100	–	> 100	–	> 100	–	> 100	–	> 100	–	> 100	–	> 100	–	> 100	–	> 100	–	> 100
CCN(CC)/[N+]([O-])=N/OCC(C)O (stereo not drawn)	–	> 100	–	> 100	–	> 100	–	> 100	–	> 100	–	> 100	–	> 100	–	> 100	–	> 100	–	> 100
Fc1ccc2c(c1)cc1ccc3cccc4ccc2c1c34	–	> 100	–	> 100	–	> 100	–	> 100	–	> 100	–	> 100	–	> 100	–	> 100	–	> 100	–	> 100
CCN(CC)c1ccc(/C=N/NC(=O)c2ccccc2Nc2ccnc(C(F)(F)F)c2)c(O)c1	0.354	> 32.9	0.0577	0.387	0.101	4.35	0.192	> 100	0.102	4.2	0.235	2.37	0.0942	> 100	1.29	97.9	0.278	> 100	0.365	> 67.4
CN1CCN(Cc2ccc(NC(=O)c3cccc(C#Cc4c(N)ncc5ccc(F)cc45)c3)cc2C(F)(F)F)CC1	0.578	1.26	0.727	1.43	0.879	1.95	0.969	1.84	0.681	1.63	0.265	2.7	0.719	1.58	0.923	2.09	0.663	1.44	1.14	2.35
N#Cc1ccc(NC(=O)Nc2nc3ccc(OC(F)(F)F)cc3s2)cc1	0.473	4.41	1.59	9.12	1.36	14.7	1.28	6.04	1.88	13.4	1.98	10.4	3.06	16.8	1.78	4.25	1.58	8.64	1.22	7.03
COC1C(O)CC(OC2CC(OC3CC(O[C@@H]4C(=O)c5c(cc6cc(OC7CC(OC8CC(O)C(O)C(C)O8)C(O)C(C)O7)c(C)c(O)c6c5O)CC4[C@H](OC)[C@@H](O)C(C)=O)OC(C)C3O)OC(C)C2O)OC1C (stereo partly drawn)	0.0214	0.103	0.749	> 33.3	0.014	> 33.3	0.00349	0.0258	0.00749	0.34	0.0507	0.181	0.0155	> 33.3	0.0167	0.0492	0.0192	> 33.3	0.0257	> 33.3
Cn1cc2ccccc2c1-c1nc(F)nc(Nc2ccc(N)cc2)n1	–	21.6	–	45	–	60.4	–	32.1	–	65.5	–	32.7	–	56.3	–	30.1	–	47.4	–	> 100
Cc1ccccc1C[P+](c1ccccc1)(c1ccccc1)c1ccccc1	1.93	12.7	23.6	> 100	0.873	> 100	0.888	24.2	4.9	> 100	3.18	> 100	1.89	> 100	1.29	68.4	2.42	> 100	1.2	30.2
COc1ccccc1N1CCN(CCCOc2ccc(C(=O)/C=C3/C(=O)Nc4ccccc43)cc2)CC1	19.3	70.5	15.5	> 62.8	7.34	41.2	13.9	32	1.69	17.5	14.3	65.7	16.8	47.3	5.54	> 80.4	19.9	> 100	12.3	> 67.7
Cc1ccc(-n2c3c(c4c(CN)c(O)ccc42)CCc2ccccc2C3=O)cc1	4.17	16.8	13	26.6	12.4	28.5	4.05	15.6	2.33	6.51	18.2	36.6	9.06	28.3	12	26.9	14.2	28.2	13.3	26.3
C[C@@H]1OC(=O)NN=C1c1ccc(-c2ccc(F)cc2)c(C(F)(F)F)c1	15.5	29.5	4.88	18.7	–	12.4	10.6	23.1	5.27	33.4	2.57	20.6	1.03	21.5	0.141	13.1	5.63	21.8	1.65	19.6
CN[C@H]1CC[C@]23C[C@]24CC[C@]2(C)[C@@H]([C@H](C)N(C)C)CC[C@@]2(C)[C@@H]4CC[C@H]3C1(C)C	–	35.4	–	45.9	–	37.9	–	28.7	–	60.1	–	34.9	–	31.5	–	40	–	29.1	–	39.3
CCOC(=O)NC(=O)c1cn(C2OC(COC(=O)CCCCCCCCC(=O)OCC3OC(n4cc(C(=O)NC(=O)OCC)c(=O)[nH]c4=O)C4OC(C)(C)OC34)C3OC(C)(C)OC32)c(=O)[nH]c1=O (stereo not drawn)	–	> 100	–	> 100	–	> 100	–	> 100	–	> 100	–	> 100	–	> 100	–	> 100	–	> 100	–	> 100
